Read-outs that look alike come from different tables or passages of the source.
Tests used:
DENV2 replicon = test: microbe, parasite or virus in culture; type: cell-based, Dengue Virus 2 (DENV2); details: for inhibition at 50 µM: DENV2, BHK-21, read-out: % Replicon Inhibition (Means ± SEM) DENV2
WNV replicon = test: microbe, parasite or virus in culture; type: cell-based, West Nile virus (WNV); details: for EC50: read-out: WNV replicon EC50; for inhibition of WNV replicon replication (in words): FIG. 1B; for inhibition at 50 µM: read-out: % Replicon Inhibition (Means ± SEM) WNV
DENV2 = test: Inhibition of DENV2 infectivity in BHK-21 cells, plaque assay of supernatants; type: cell-based, Dengue Virus 2 (DENV2); details: MOI of 1; supernatants at 72 hours; BHK-21 cells; read-out: EC90 for inhibition of DENV2 infectivity (plaque assay)
Method: BHK-21 cells were seeded into 12-well plates (10^5 cells/well) and incubated overnight at 37° C. Cells were infected with DENV2 at a multiplicity of infection (MOI) of 0.01 or 1 as indicated. After infection, cells were washed with PBS and incubated with 1.5 mL of MEM supplemented with 2% FBS, 100 I.U./mL penicillin/100 μg/mL streptomycin (referred to as maintenance medium). AQ, at indicated concentrations, was added and cells were incubated at 37° C. for various time points as indicated. DMSO (1%), as a no-compound control (100% infection), and mock-infected control using medium alone (0% infection) were included. Supernatants were collected from the time point experiments and the virus titers determined by plaque assay.
BHK-21 cells were seeded at ˜10^5 cells/well (12-well plate) or ˜5×10^4 cells/well (24-well plate) and then incubated at 37° C. until reaching 90% confluence. Cells were infected with the supernatants collected from experiments of AQ treatments. Cells were washed with PBS, and incubated with 1.5 mL of overlay medium (maintenance medium containing 1% methylcellulose). The plates were incubated for 3-4 days at 37° C. under 5% CO2. After plaques became visually apparent by microscopy, cells were fixed and stained with 11.1% formaldehyde, 4.75% isopropanol, and 1% crystal violet for 30 minutes. The number of plaque forming units (PFU) per mL was determined.
BHK-21 cells were seeded as described above. AQ, at indicated concentrations in 1% DMSO, was added to DENV2 (MOI of 0.01 or 1)-infected cells during adsorption and/or post-infection. Supernatants were collected at indicated time points post-infection for plaque assays.

Vero cells [1] = test: Cytotoxicity assay, Vero cells; details: read-out: WNV replicon CC50; Table 2; unit inferred
BHK-21 cells [2] = test: Cytotoxicity assay, BHK-21 cells; details: read-out: DENV replicon CC50; Table 2; unit inferred
BHK-21 cells [3] = details: hamster
Vero cells [4] = details: African green monkey
in vitro [5] = details: hamster
in vitro [6] = details: African green monkey
[7] = 50 μM in 1% DMSO, Vero/WNV replicon cells
[8] = Dengue virus, DENV2, BHK-21, read-out: DENV replicon EC50

Structure (SMILES)	% Replicon Inhibition (Means ± SEM) DENV2 (DENV2 replicon) [%]	inhibition of DENV2 replicon replication (in words) (DENV2 replicon)	EC50 (DENV2 replicon; read-out: DENV replicon EC50) [µM]	EC50 (DENV2 replicon; read-out: EC50 values, BHK-21/DENV2 replicon cells) [µM]	% Replicon Inhibition (Means ± SEM) WNV (WNV replicon; [7]) [%]	EC50 (WNV replicon; Table 2, unit inferred) [µM]	EC90 (DENV2) [µM]	CC50 (Vero cells [1]) [µM]	CC50 (BHK-21 cells [2]) [µM]	inhibition of WNV replicon replication (in words) (WNV replicon; Vero/WNV replicon cells)	inhibition at 50 µM (DENV2 replicon; Dengue virus) [%]	EC50 (DENV2 replicon; [8]) [µM]	% Replicon Inhibition (Means ± SEM) WNV (WNV replicon) [%]	inhibition at 50 µM (WNV replicon; West Nile virus, Vero) [%]	EC50 (WNV replicon; West Nile virus, Vero) [µM]	CC50 (BHK-21 cells [3]) [µM]	CC50 (Vero cells [4]) [µM]	CC50 (in vitro [5]) [µM]	CC50 (in vitro [6]) [µM]
Oc1ccc(Nc2ccnc3cc(Cl)ccc23)cc1 [AQ derivative 8]	3.9 ± 0.3	failed to inhibit replicon replication	> 100	~100	57.2 ± 5.1	> 100	31.2 ± 5.15	> 100	> 100	–	–	–	–	–	–	–	–	–	–
COc1ccc(Nc2ccnc3cc(Cl)ccc23)cc1CN(CCCl)C(C)CCl (stereo not drawn) [AQ derivative 7]	93.0 ± 2.6	strong inhibition	19 ± 1.73	–	97.7 ± 1.1	14.8 ± 1.14	–	34.8 ± 1.78	17.7 ± 1.96	strong inhibition	–	–	–	–	–	–	–	–	–
CCN(CC)Cc1cc(Nc2c(C)cnc3cc(Cl)ccc23)ccc1O [AQ derivative 1]	89.9 ± 10.6	strong inhibition	21.1 ± 1.22	–	97.9 ± 0.5	14.8 ± 0.48	–	–	–	strong inhibition	–	–	–	–	–	–	–	–	–
C=CN(C)Cc1cc(Nc2ccnc3cc(Cl)ccc23)ccc1O [AQ derivative 6]	98.5 ± 1.3	strong inhibition	12.5 ± 2.19	–	99.5 ± 0.1	6.29 ± 0.52	–	18.2 ± 1.05	16.4 ± 0.46	strong inhibition	–	–	–	–	–	–	–	–	–
CC[N+](C)(CC)Cc1cc(Nc2ccnc3cc(Cl)ccc23)ccc1O [AQ derivative 2]	69.9 ± 3.4	–	29.7 ± 2.26	–	50.6 ± 4.4	30.2 ± 6.05	–	–	–	–	–	–	–	–	–	–	–	–	–
CC(CCCN(CCCl)CCCl)Nc1ccnc2cc(Cl)ccc12 (stereo not drawn) [chloroquine mustard]	99.6 ± 0.32	–	–	–	–	–	–	–	–	–	> 99	2.9 ± 0.78	99.8 ± 0.03	> 99	2.95 ± 0.77	30.5 ± 9.77	3.64 ± 0.93	–	–
CC(CCc1ccc(N(CCCl)CCCl)cc1)Nc1ccnc2cc(Cl)ccc12 (stereo not drawn) [chloroquine ethyl phenyl mustard]	99.8 ± 0.03	–	–	–	–	–	–	–	–	–	> 99	3.6 ± 0.83	99.5 ± 0.05	> 99	1.55 ± 0.4	–	–	74.1 ± 21.5	5.02 ± 1.23
